For experiment [1], the system named is PIM-2. Kind of experiment: PIM-2 ubiquitination (K-ε-GG ubiquitin remnant profiling) after proteasome inhibitor treatment, U266 cells. To be noted: PIM-2 lysine 61; U266 (4 hr); 125 nM; vs DMSO control. It is filed as cell-based. The procedure:
(§1) Multiple myeloma cells were used to identify pro-survival proteins that were stabilized upon carfilzomib exposure by monitoring an increase in ubiquitination at specific sites associated with degradation. Two multiple myeloma cell lines, U266 and NCI-H929, were treated for 1 and 4 hours at 125 nM concentration of carfilzomib and bortezomib. DMSO treated cells were used as a control. The concentrations of active agents used were set at the IC80 of chymotrypsin activity inhibition and 48 hr cytotoxicity. The subunit inhibition profile obtained for these concentrations in vitro mimicked the subunit inhibition profile for carfilzomib in patients treated with a dose of 27 mg/m^2. Washed cell pellets were processed and profiled for ubiquitin modified proteins using a specific di-glycine antibody (PTMScan® Ubiquitin Remnant Motif (K-ε-GG) Kit #5562) that recognizes all lysine ubiquitin linkages on ubiquitin ligase substrates. All lysines on a protein that are modified with ubiquitin can be identified by this approach, and the lysines distal from the phosphorylation sites can then be associated with degradation. […] The increase in ubiquitin was also time dependent in NCI-H929 (Table 1).

The test system of experiment [2] is PIM-2. Kind of experiment: PIM-2 ubiquitination (K-ε-GG ubiquitin remnant profiling) after proteasome inhibitor treatment, NCI-H929 cells. It counts as cell-based. To be noted: PIM-2 lysine 61, 125 nM, vs DMSO control. The procedure: as §1

The values below come from patent publication US12076363B2, “Peptide epoxyketone proteasome inhibitors in combination with PIM kinase inhibitors for treatment of cancers” (ONYX PHARMACEUTICALS, INC., priority 2013, dated 2024).

Consider `CC(C)C[C@H](NC(=O)[C@H](CCc1ccccc1)NC(=O)CN1CCOCC1)C(=O)N[C@@H](Cc1ccccc1)C(=O)N[C@@H](CC(C)C)C(=O)[C@@]1(C)CO1` [CFZ, carfilzomib], for which the figures for the Ubiquitin fold increases with PIM-2 [1], in the experiment with PIM-2 [2] (H929 (1 hr)) and in the experiment on PIM-2 [2] (H929 (4 hr)) were 34.6 fold, 10.7 fold and 24.9 fold, respectively.

For the molecule `CC(C)C[C@H](NC(=O)[C@H](Cc1ccccc1)NC(=O)c1cnccn1)B(O)O` [BTZ, bortezomib], the results for the Ubiquitin fold increases in the experiment with PIM-2 [1], with PIM-2 [2] (H929 (1 hr)) and in the experiment with PIM-2 [2] (H929 (4 hr)) were 31.5 fold, 11 fold and 21.4 fold, respectively.
